SMILES strings stand for the structures. Values after ≈ are worked out from the molar mass of the structure shown. Structures can show the parent of a compound that is named as a salt. Where two headings read alike, the source gives them in different places.

These results are taken from patent publication US20080090849A1, “NOVEL PURINE DERIVATIVES, PREPARATION METHOD AND USE AS MEDICINES” (AVENTIS PHARMA S.A., priority 2000, published 2008).

One assay concerns the target CaCiv1 (Candida albicans, UniProt A0A1D8PH53). Nature of the assay: Test of inhibition of the activity of CIV-CDK (CIV1). In kind it is biochemical. How it is done:
(Details of the Excipient: Lactose, Talc, Starch, Magnesium Stearate.) Pharmacological Part: 1) Test of Inhibition of the Activity of CIV-CDK (CIV1) a) PREPARATION of the Reagents […]
967 μl Buffer [50 mM Tris-HCl−0.1 M NaCl−pH 7.5]
−0.1% BSA+30 μl Cdk2 (1 mg/ml)
(2)-3× Inhibitor Cocktail
Prepare a 3× range of inhibitor in 3% of DMSO-Buffer
[50 mM Tris-HCl−0.1 M NaCl−pH 7.5]−0.1% BSA
ATP−pH 7.5+1 tablet of protease inhibitors (Complete EDTA Free™) per 5 ml of Buffer b) Carrying Out of the Test
1)—mix 30 μl of the 3× enzyme cocktail (1) with 30 μl of the 3× inhibitor cocktail (2) 2)—add 30 μl of the 3×ATP cocktail (3) (start of the reaction)
3)—incubate for 30 min at room temperature (20 to 25° C.)
4)—stop the reaction by adding 250 μl of Buffer [50 mM Tris-HCl−0.1 M NaCl−pH 7.5]−0.1% BSA−25 mM EDTA 5)—distribute 100 μl into a plate coated with antibodies directed against the reaction substrate 6)—incubate for 60 min at room temperature, stirring gently and then wash 3 times with 300 μl Buffer [50 mM Tris-HCl−0.1 M NaCl−pH 7.5]−0.05% Tween20
9)—Place the plate to dry for 30 min at 37° C.
10)—Place for counting in a scintillation counter c) Results Obtained, Expressed as IC50 Expressed in Micromolar

In a further assay the test system is fungus. Put plainly: Minimum inhibitory concentration (MIC), NCCLS M27-A broth dilution antifungal susceptibility test. Type of assay: cell-based. The following applies: RPMI 1640 medium, 37° C., visual reading, inhibition of at least 80% of growth; test strain not named. The source says: A constant number of cells of a given strain are exposed to increasing concentrations of an antifungal, under conditions taken from NCCLS (National Committee for Clinical Laboratory Standards, 1997 [reference method for broth dilution antifungal susceptibility testing of yeasts]. Approved Standard M27-A. NCCLS, Villanova, Pa.); the minimum concentration with which a visible reduction in the cloudiness from cell growth was observed (at least 80% relative to a control with no product) is the minimum inhibitory concentration (MIC) of the antifungal for the test strain.
Supplement the L-glutamine-free RPMI 1640 medium (liquid) with L-glutamine (0.3 g/l or 10.5 ml of a solution at 200 mM) and buffer with 34.54 g/l (0.165 M) of M morpholinepropanesulfonic acid (MOPS). Sterilize the medium by filtration. Distribute 100 μl of RPMI medium into each well of a 96-well microplate. Distribute the appropriate volume of the antifungal solution in the first column of the microplate and adjust with medium to 200 μl. Carry out a 2-fold serial dilution in order to establish a range of 11 concentrations in each lane of the microplate. The 12th well of each row will serve as a control for growth. Prepare the cellular suspension from a (liquid or agar) culture or from a frozen vial, dilute it in RPMI medium in order to obtain a cellular suspension at 5×10^3-2×10^4 cells/ml. Distribute 100 μl of the cellular suspension into the microplate. The MIC for all the Candida species was read after 24-48 h, for Cryptococcus and Aspergillus after 48-72 h of incubation at 37° C. in a normal atmosphere. The MIC is read by visual readings by determining the well which contains the lowest dose of antifungal which causes an inhibition of at least 80% of the growth of the fungus.
A general note: Broth dilution looks for growth in wells or tubes with falling amounts of substance.

Setting [1] is: CaCiv1 with Cdk2, [33P]ATP, 30 min at room temperature, scintillation counting, read-out: IC50.

Chain of CaCiv1 (A0A1D8PH53 entry or part of it): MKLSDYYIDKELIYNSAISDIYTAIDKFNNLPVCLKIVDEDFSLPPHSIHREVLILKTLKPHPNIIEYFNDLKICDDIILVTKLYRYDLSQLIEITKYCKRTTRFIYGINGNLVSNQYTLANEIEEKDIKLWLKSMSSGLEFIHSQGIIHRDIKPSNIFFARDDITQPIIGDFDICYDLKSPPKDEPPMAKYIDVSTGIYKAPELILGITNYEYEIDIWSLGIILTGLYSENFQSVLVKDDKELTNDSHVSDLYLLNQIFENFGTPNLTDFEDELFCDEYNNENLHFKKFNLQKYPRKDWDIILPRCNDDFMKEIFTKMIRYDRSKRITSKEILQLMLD

As usually defined, the IC50 is the concentration at which inhibition is half-maximal. In turn, `CCOC(=O)c1ccc(Nc2[nH]c(N[C@H]3CC[C@H](N)CC3)nc3ncnc2-3)cc1` [Example 1, Ethyl trans-4-[[2-[(4-aminocyclohexyl)amino]-1H-purin-6-yl]amino]benzoate dihydrochloride] showed an IC50 against CaCiv1 of 500 nM.

Consider `N[C@H]1CC[C@H](Nc2nc(Nc3ccccc3)c3nc[nH]c3n2)CC1` [Example 11, Trans-N2-(4-aminocyclohexyl)-N6-[4-phenyl]-1H-purine-2,6-diamine dihydrochloride], for which, on CaCiv1 (setting [1]), the IC50 worked out at 2500 nM.

`CCOC(=O)c1cccc(Nc2nc(N[C@H]3CC[C@H](N)CC3)nc3[nH]cnc23)c1` [Example 14, Ethyl trans-3-[[2-[(4-aminocyclohexyl)amino]-9H-purin-6-yl]amino]benzoate]: on CaCiv1 (setting [1]), the IC50 stood at 2000 nM.

Usually MIC stands for the lowest concentration found to suppress growth. A lower MIC goes with a more susceptible organism. With `N[C@H]1CC[C@H](Nc2nc(Nc3ccc(Cl)cc3)c3nc[nH]c3n2)CC1` [Example 15, Trans-N2-(4-aminocyclohexyl)-N6-(4-chlorophenyl)-9H-purine-2,6-diamine], the minimal inhibitory concentration (MIC) against fungus was found to be 100 µg/mL (≈ 279 µM).

As for `N[C@H]1CC[C@H](Nc2nc(Nc3ccc(Cl)c(Cl)c3)c3nc[nH]c3n2)CC1` [Example 16, trans-N2-(4-aminocyclohexyl)-N6-(3,4-dichlorophenyl)-9H-purine-2,6-diamine], the MIC in the assay with fungus turned out to be 25 µg/mL (≈ 63.7 µM). The concentration for half-maximal inhibition (IC50) at CaCiv1 (setting [1]) is 2900 nM.

`CCCCOC(=O)c1ccc(Nc2nc(N[C@H]3CC[C@H](N)CC3)nc3[nH]cnc23)cc1` [Example 17, Butyl trans-4-[[2-[(4-aminocyclohexyl)amino]-9H-purin-6-yl]amino]benzoate]: the MIC in the assay on fungus amounted to 12.5 µg/mL (≈ 29.5 µM). In addition, the IC50 at CaCiv1 (setting [1]) is 5600 nM.

On to `CCN(CC)CCOC(=O)c1ccc(Nc2nc(N[C@H]3CC[C@H](N)CC3)nc3[nH]cnc23)cc1` [Example 18, 2-(diethylamino)ethyl trans-4-[[2-[(4-aminocyclohexyl)amino]-9H-purin-6-yl]amino]benzoate], for which the 50% inhibitory concentration (IC50) on CaCiv1 (setting [1]) came out at 4300 nM.

For the compound `N[C@H]1CC[C@H](Nc2nc(Nc3ccc(C(=O)Nc4ccccc4)cc3)c3nc[nH]c3n2)CC1` [Example 19, Trans-4-[[2-[(4-aminocyclohexyl)amino]-9H-purin-6-yl]amino]-N-phenylbenzamide], the IC50 on CaCiv1 (setting [1]) is 3800 nM.
